Experimental data as given in article PMC12083526, “Capturing structural intermediates in an animal-like cryptochrome photoreceptor by time-resolved crystallography” (Science Advances, 2025).

Legend:
[1] = biological target: T1, CraCRYΔCTE (CraCRY; animal-like cryptochrome, aCRY) (Chlamydomonas reinhardtii, UniProt A8J8W0); test: serial femtosecond crystallography (room temperature); conditions: crystals reduced with 50 mM DTT and white light, anaerobic; FAD-binding site
T1 construct: gene CHLRE_06g278251v5; C-terminal extension E496-E595 replaced by a His tag; pET28a-based; E. coli BL21(DE3); PHR domain plus helix α22
T1 sequence (A8J8W0 entry or part of it, stated change not applied): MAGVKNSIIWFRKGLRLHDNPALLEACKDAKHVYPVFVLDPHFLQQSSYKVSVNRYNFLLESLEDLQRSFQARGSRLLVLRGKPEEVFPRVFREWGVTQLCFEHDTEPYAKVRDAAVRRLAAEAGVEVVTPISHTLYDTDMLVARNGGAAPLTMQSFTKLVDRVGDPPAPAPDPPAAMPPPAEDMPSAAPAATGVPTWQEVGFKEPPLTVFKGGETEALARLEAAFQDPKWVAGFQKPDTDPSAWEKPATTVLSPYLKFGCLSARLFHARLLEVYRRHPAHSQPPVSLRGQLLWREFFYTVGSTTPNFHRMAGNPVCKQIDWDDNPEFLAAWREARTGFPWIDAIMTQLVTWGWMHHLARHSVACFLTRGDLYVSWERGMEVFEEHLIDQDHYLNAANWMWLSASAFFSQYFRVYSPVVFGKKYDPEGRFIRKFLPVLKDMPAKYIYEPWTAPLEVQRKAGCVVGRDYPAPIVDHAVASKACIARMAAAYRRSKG

[2] = biological target: T2, CraCRYΔCTE (CraCRY; animal-like cryptochrome, aCRY) (Chlamydomonas reinhardtii, UniProt A8J8W0, E384Q); test: steady-state photoreduction, UV/Vis absorption; format: binding; conditions: white light on ice, aerobic, no external reductant; 20 mM phosphate, 500 mM NaCl, 10% glycerol, pH 5.5-8.5
T2 construct: gene CHLRE_06g278251v5; C-terminal extension E496-E595 replaced by a His tag; pET28a-based; E. coli BL21(DE3); PHR domain plus helix α22
T2 sequence (A8J8W0 entry or part of it E384Q): as the sequence (A8J8W0 entry or part of it, stated change not applied) above, with E384Q counted along it

Structure (SMILES): Cc1cc2c(cc1C)N(C[C@H](O)[C@H](O)[C@H](O)COP(=O)(O)OP(=O)(O)OC[C@H]1O[C@@H](n3cnc4c(N)ncnc43)[C@H](O)[C@@H]1O)c1[nH]c(=O)[nH]c(=O)c1N2 [FADH^−]
- serial femtosecond crystallography (room temperature) [1]: CraCRY structures in FADox and FADH^− states at room temperature are almost identical

Structure (SMILES): Cc1cc2nc3c(=O)[nH]c(=O)nc-3n(C[C@H](O)[C@H](O)[C@H](O)COP(=O)(O)OP(=O)(O)OC[C@H]3O[C@@H](n4cnc5c(N)ncnc54)[C@H](O)[C@@H]3O)c2cc1C [FADox, flavin adenine dinucleotide]
- steady-state photoreduction, UV/Vis absorption [2]: E384Q is inefficient to generate the neutral radical FADH^• at physiological pH
